We go through nine compounds from patent publication US20260028336A1 (Arcus Biosciences, Inc., priority 2022, published 2026).

The structures appear in SMILES notation.

In one test the target is T1, Cbl-b (Homo sapiens, UniProt Q13191).
T1 construct: biotin (biotinylated)
Briefly: Cbl-b probe displacement HTRF binding assay. Particulars: 0.4 nM biotinylated Cbl-b, 150 nM BODIPY probe. A digest of the protocol: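 Biotinylated Cbl-b was preincubated with compound for 60 min at room temperature in HEPES/NaCl/Triton/TCEP/BSA buffer. BODIPY probe was added for 15 min, followed by streptavidin-terbium, and the HTRF signal was read. Displacement was normalised to DMSO and no-protein controls, and affinity was obtained from a four-parameter dose-response fit.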

The next test has as its system Jurkat cells. In words: IL-2 secretion assay in CD3/CD28-activated Jurkat cells (AlphaLISA). It counts as cell-based. As to conditions: Homo sapiens, CD3/CD28 T Cell Activator, 24 h, IL-2 AlphaLISA. An outline of the steps:
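Jurkat cells (50,000/well) were preincubated 1 h at 37° C with compound in a 16-point 1:2 series spanning 10 μM to 300 pM final. Cells were then activated with CD3/CD28 T cell activator, and secreted IL-2 was read by AlphaLISA. EC50 came from 4-parameter logistic fits.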
Background: Alpha assays give light when donor and acceptor beads are brought close together.

T1 sequence (Q13191 whole entry, species assumed): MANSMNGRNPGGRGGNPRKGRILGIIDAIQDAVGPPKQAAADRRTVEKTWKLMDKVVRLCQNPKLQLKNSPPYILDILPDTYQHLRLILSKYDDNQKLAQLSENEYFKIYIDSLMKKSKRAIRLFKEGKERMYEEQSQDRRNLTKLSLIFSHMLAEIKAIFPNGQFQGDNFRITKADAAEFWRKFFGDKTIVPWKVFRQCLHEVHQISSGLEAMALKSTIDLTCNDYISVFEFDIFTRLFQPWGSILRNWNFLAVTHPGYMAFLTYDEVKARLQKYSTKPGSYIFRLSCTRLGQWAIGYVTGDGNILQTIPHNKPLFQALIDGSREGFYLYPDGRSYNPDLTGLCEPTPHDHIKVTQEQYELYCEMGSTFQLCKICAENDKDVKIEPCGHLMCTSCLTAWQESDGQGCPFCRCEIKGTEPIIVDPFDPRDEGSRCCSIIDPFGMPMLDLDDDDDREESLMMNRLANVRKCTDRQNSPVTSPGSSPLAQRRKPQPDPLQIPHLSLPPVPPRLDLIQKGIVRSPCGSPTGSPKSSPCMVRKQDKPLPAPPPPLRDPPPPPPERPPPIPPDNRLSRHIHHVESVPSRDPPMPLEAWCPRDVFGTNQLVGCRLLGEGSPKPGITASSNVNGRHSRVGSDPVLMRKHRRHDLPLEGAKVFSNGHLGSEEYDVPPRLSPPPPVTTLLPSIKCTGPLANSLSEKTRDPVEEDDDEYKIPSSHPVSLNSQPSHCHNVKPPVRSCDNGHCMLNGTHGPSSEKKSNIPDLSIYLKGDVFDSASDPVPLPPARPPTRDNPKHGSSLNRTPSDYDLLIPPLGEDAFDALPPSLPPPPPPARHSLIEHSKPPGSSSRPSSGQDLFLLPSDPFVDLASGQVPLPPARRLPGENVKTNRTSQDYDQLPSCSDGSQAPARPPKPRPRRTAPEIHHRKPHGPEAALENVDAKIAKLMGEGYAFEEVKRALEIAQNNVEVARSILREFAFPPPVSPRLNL

On to `C[C@H]1CCCN(Cc2cc3c(C4CC4)cn(-c4cccc(C(O)(c5nncn5C)C(F)(F)F)c4)c(=O)c3[nH]2)C1` (stereo partly drawn) [Example 156], for which, on Cbl-b, the IC50 (usually the concentration that inhibits the measured activity by half) is below 0.1 µM. The EC50 (commonly the concentration giving half of the maximal effect) with Jurkat cells lay within 0.1 to 1 µM.

As for `COC(c1cccc(-n2cc(C3CC3)c3cc(CN4CCC[C@H](C)C4)[nH]c3c2=O)c1)c1nncn1C` (stereo partly drawn) [Example 158], on Cbl-b, the IC50 was below 0.1 µM. The EC50 in the test on Jurkat cells fell in the range of 0.1 to 1 µM.

In the case of `COC(C)(c1cccc(-n2cc(C3CC3)c3cc(CN4CCC[C@H](C)C4)[nH]c3c2=O)c1)c1nncn1C` (stereo partly drawn) [Example 159, 4-cyclopropyl-6-[3-[1-methoxy-1-(4-methyl-1,2,4-triazol-3-yl)ethyl]phenyl]-2-[[(3S)-3-methylpiperidin-1-yl]methyl]-1H-pyrrolo[2,3-c]pyridin-7-one], at Cbl-b, the IC50 lay in the range of 0.1 to 1 µM. The compound also gave an EC50 in the test with Jurkat cells of 0.1 to 1 µM.

Consider `C[C@H]1CCCN(Cc2cc3c(C4CC4)cn(-c4cc(C(C)(C)c5nncn5C)ccn4)c(=O)c3[nH]2)C1` [Example 160, 2—{[(S)-3-methyl-1-piperidyl]methyl}-4-cyclopropyl-6-{4-[1-methyl-1-(4-methyl-4H-1,2,4-triazol-3-yl)ethyl]-2-pyridyl}-1,6-dihydro-1,6-diaza-7-indenone], for which the IC50 at Cbl-b is 0.1 to 1 µM. The compound further returned an EC50 in the test on Jurkat cells of 0.1 to 1 µM.

`C[C@H]1CCCN(Cc2cc3c(C4CC4)cn(-c4cccc(C(F)(F)c5nncn5C)c4)c(=O)c3[nH]2)C1` [Example 161, 4-cyclopropyl-6-[3-[difluoro-(4-methyl-1,2,4-triazol-3-yl)methyl]phenyl]-2-[[(3S)-3-methylpiperidin-1-yl]methyl]-1H-pyrrolo[2,3-c]pyridin-7-one] gave an IC50 on Cbl-b below 0.1 µM. In addition, the concentration giving a half-maximal response (EC50) with Jurkat cells lay in the range of 0.1 to 1 µM.

As to `C[C@H]1CCCN(Cc2cc3c(C4CC4)cn(-c4cccc(C(F)c5nncn5C)c4)c(=O)c3[nH]2)C1` (stereo partly drawn) [Example 162, 4-cyclopropyl-6-[3-[fluoro-(4-methyl-1,2,4-triazol-3-yl)methyl]phenyl]-2-[[(3S)-3-methylpiperidin-1-yl]methyl]-1H-pyrrolo[2,3-c]pyridin-7-one], on Cbl-b, the IC50 was in the range of 0.1 to 1 µM. In the test on Jurkat cells, the EC50 fell in the range of 0.1 to 1 µM.

Regarding `C[C@H]1CCCN(Cc2cc3c(C4CC4)cn(-c4cccc(C(C)(F)c5nncn5C)c4)c(=O)c3[nH]2)C1` (stereo partly drawn) [Example 163, 4-cyclopropyl-6-[3-[1-fluoro-1-(4-methyl-1,2,4-triazol-3-yl)ethyl]phenyl]-2-[[(3S)-3-methylpiperidin-1-yl]methyl]-1H-pyrrolo[2,3-c]pyridin-7-one], the IC50 on Cbl-b was below 0.1 µM. Besides, the EC50 with Jurkat cells was below 0.1 µM.

In the case of `C[C@H]1CCCN(Cc2cc3c(C4CC4)cn(-c4cccc(C(C)(F)c5nccn5C)c4)c(=O)c3[nH]2)C1` (stereo partly drawn) [Example 164], the IC50 at Cbl-b lay in the range of 1 to 5 µM. The compound also registered an EC50 with Jurkat cells of 1 to 5 µM.

`CC(c1cccc(-n2cc(C3CC3)c3cc(CN4CCC[C@H](C)C4)[nH]c3c2=O)c1)c1nncn1C` (stereo partly drawn) [Example 165, 4-cyclopropyl-2-[[(3S)-3-methylpiperidin-1-yl]methyl]-6-[3-[1-(4-methyl-1,2,4-triazol-3-yl)ethyl]phenyl]-1H-pyrrolo[2,3-c]pyridin-7-one] came in with an IC50 at Cbl-b below 0.1 µM. In addition, the EC50 in the test on Jurkat cells was below 0.1 µM.
